Experimental data taken from patent publication US6737383B1, “Herbicidal oxadiazolidines” (priority 1999, dated 2004).

Columns and labels:
bamyardgrass = assay: Test B flood test barnyardgrass; assay type: in vivo, Echinochloa crus-galli
Method in brief: (§1)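 Read-out is a visual response score from 0 (no effect) to 10 (complete control), assigned by comparison with untreated controls. Treatment was applied at the 2-leaf stage, and plants stayed in the greenhouse for twelve to sixteen days before scoring.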

crabgrass = assay: Test B pre/postemergence crabgrass; assay type: in vivo, Digitaria sanguinalis; conditions: for Crabgrass plant response rating (0 to 10 scale): 0 is no effect
Method in brief: (§2)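 Test chemicals in a non-phytotoxic solvent mixture with surfactant were sprayed preemergence onto planted seeds and postemergence onto plants 2 to 18 cm tall (1- to 4-leaf stage). After twelve to sixteen days in a greenhouse, injury was visually rated against untreated controls from 0 (no effect) to 10 (complete control).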

duck salad = assay: Test B flood test duck salad; assay type: in vivo, Heteranthera limosa
Method in brief: as §1

purple nutsedge = assay: Test B pre/postemergence purple nutsedge; assay type: in vivo, Cyperus rotundus; conditions: for Nutsedge plant response rating (0 to 10 scale): 0 is no effect
Method in brief: as §2

[1] = Postemergence (flood test species), Rate 125 g/ha, scale of 0 to 10 where 0 is no effect and 10 is complete control
[2] = Rate 31 g/ha, Postemergence section (flood test species), scale 0 to 10
[3] = Rate 62 g/ha, Postemergence section, flood test species, scale of 0 to 10 where 0 is no effect and 10 is complete control
[4] = Rate 250 g/ha, Postemergence (flood test), scale 0 to 10, 0 is no effect, 10 is complete control
[5] = Postemergence, Rate 125 g/ha, scale of 0 to 10 where 0 is no effect and 10 is complete control
[6] = Preemergence, Rate 31 g/ha, visual rating, scale 0 to 10 (0 no effect, 10 complete control)
[7] = Preemergence, Rate 62 g/ha, scale 0 to 10 (0 no effect, 10 complete control)
[8] = Preemergence, Rate 125 g/ha, 10 is complete control
[9] = Preemergence, Rate 250 g/ha, scale 0 to 10, 0 is no effect, 10 is complete control
[10] = Rate 31 g/ha, Postemergence, scale 0 to 10
[11] = Rate 62 g/ha, Postemergence, scale of 0 to 10 where 0 is no effect and 10 is complete control
[12] = Rate 250 g/ha, Postemergence, scale 0 to 10, 0 is no effect, 10 is complete control
[13] = Rate 62 g/ha, headed Pre-emergence (flood test species), scale 0 to 10 (0 no effect, 10 complete control)
[14] = Rate 125 g/ha, Pre-emergence, flood test species, scale 0 to 10 where 0 is no effect and 10 is complete control
[15] = Rate 250 g/ha, Pre-emergence, flood-test species, scale 0 to 10, 0 is no effect, 10 is complete control
[16] = Rate 500 g/ha, headed Pre-emergence (flood test species), scale 0 to 10 (0 no effect, 10 complete control)
[17] = Preemergence, Rate 62 g/ha, scale of 0 to 10 where 0 is no effect and 10 is complete control
[18] = Preemergence, Rate 500 g/ha, scale 0 to 10 (0 no effect, 10 complete control)
[19] = Rate 125 g/ha, Postemergence, scale 0 to 10
[20] = Rate 500 g/ha, Postemergence, scale 0 to 10
[21] = Preemergence, Rate 500 g/ha, scale of 0 to 10 where 0 is no effect and 10 is complete control

Cc1noc(C)c1-n1c(=O)on(C(=O)N(c2ccc(F)cc2)C(C)C)c1=O [Compound 155]
Barnyardgrass plant response rating (bamyardgrass; [1]): 0
Barnyardgrass plant response rating (bamyardgrass; [2]): 0
Barnyardgrass plant response rating (bamyardgrass; [3]): 0
Plant response rating, Barnyardgrass (bamyardgrass; [4]): 0
Crabgrass plant response rating (crabgrass; [5]): 2
Crabgrass plant response rating (crabgrass; [6]): 0
Crabgrass plant response rating (crabgrass; [7]): 0
Crabgrass plant response rating (0 to 10 scale) (crabgrass; [8]): 0
Crabgrass plant response rating (crabgrass; [9]): 6
Crabgrass plant response rating (crabgrass; [10]): 0
Crabgrass plant response rating (crabgrass; [11]): 1
Plant response rating, Crabgrass (crabgrass; [12]): 8
Ducksalad plant response rating (duck salad; [1]): 0
Ducksalad plant response rating (duck salad; [2]): 0
Ducksalad plant response rating (duck salad; [3]): 0
Plant response rating, Ducksalad (duck salad; [4]): 0
Nutsedge plant response rating (purple nutsedge; [5]): 0
Nutsedge plant response rating (purple nutsedge; [6]): 0
Nutsedge plant response rating (purple nutsedge; [7]): 0
Nutsedge plant response rating (0 to 10 scale) (purple nutsedge; [8]): 0
Nutsedge plant response rating (purple nutsedge; [9]): 0
Nutsedge plant response rating (purple nutsedge; [10]): 0
Nutsedge plant response rating (purple nutsedge; [11]): 0
Plant response rating, Nutsedge (purple nutsedge; [12]): 0

COc1nc(OC)nc(N(C(=O)n2oc(=O)n(C(C)C)c2=O)C(C)C)n1 [Compound 182]
Barnyardgrass plant response rating (bamyardgrass; [13]): 0
Barnyardgrass plant response rating (bamyardgrass; [14]): 0
Barnyardgrass plant response rating (bamyardgrass; [15]): 0
Plant response rating, Barnyardgrass (bamyardgrass; [16]): 0
Crabgrass plant response rating (crabgrass; [17]): 0
Crabgrass plant response rating (0 to 10 scale) (crabgrass; [8]): 0
Crabgrass plant response rating (crabgrass; [9]): 0
Crabgrass plant response rating (crabgrass; [18]): 0
Crabgrass plant response rating (crabgrass; [11]): 0
Crabgrass plant response rating (crabgrass; [19]): 0
Plant response rating (0 to 10; 0 is no effect, 10 is complete control), Crabgrass (crabgrass; Rate 250 g/ha, Postemergence): 0
Crabgrass plant response rating (crabgrass; [20]): 0
Ducksalad plant response rating (duck salad; [13]): 0
Ducksalad plant response rating (duck salad; [14]): 0
Ducksalad plant response rating (duck salad; [15]): 0
Plant response rating, Ducksalad (duck salad; [16]): 0
Nutsedge plant response rating (purple nutsedge; [17]): 0
Nutsedge plant response rating (0 to 10 scale) (purple nutsedge; [8]): 0
Nutsedge plant response rating (purple nutsedge; [9]): 0
Nutsedge plant response rating (purple nutsedge; [18]): 0
Nutsedge plant response rating (purple nutsedge; [11]): 0
Nutsedge plant response rating (purple nutsedge; [19]): 0
Plant response rating (0 to 10; 0 is no effect, 10 is complete control), Nutsedge (purple nutsedge; Rate 250 g/ha, Postemergence): 0
Nutsedge plant response rating (purple nutsedge; [20]): 0

CCC(CC)N(C(=O)n1oc(=O)n(-c2ccccc2C)c1=O)c1ccc(F)cc1 [Compound 193]
Barnyardgrass plant response rating (bamyardgrass; [13]): 0
Barnyardgrass plant response rating (bamyardgrass; [14]): 0
Barnyardgrass plant response rating (bamyardgrass; [15]): 0
Plant response rating, Barnyardgrass (bamyardgrass; [16]): 0
Crabgrass plant response rating (0 to 10 scale) (crabgrass; [8]): 4
Crabgrass plant response rating (crabgrass; [9]): 6
Plant response rating, Crabgrass (crabgrass; [21]): 7
Crabgrass plant response rating (crabgrass; [11]): 0
Crabgrass plant response rating (crabgrass; [19]): 0
Plant response rating (0 to 10; 0 is no effect, 10 is complete control), Crabgrass (crabgrass; Rate 250 g/ha, Postemergence): 0
Crabgrass plant response rating (crabgrass; [20]): 0
Ducksalad plant response rating (duck salad; [13]): 0
Ducksalad plant response rating (duck salad; [14]): 0
Ducksalad plant response rating (duck salad; [15]): 0
Plant response rating, Ducksalad (duck salad; [16]): 0
Nutsedge plant response rating (purple nutsedge; [17]): 0
Nutsedge plant response rating (0 to 10 scale) (purple nutsedge; [8]): 0
Nutsedge plant response rating (purple nutsedge; [9]): 0
Plant response rating, Nutsedge (purple nutsedge; [21]): 0
Nutsedge plant response rating (purple nutsedge; [11]): 0
Nutsedge plant response rating (purple nutsedge; [19]): 0
Plant response rating (0 to 10; 0 is no effect, 10 is complete control), Nutsedge (purple nutsedge; Rate 250 g/ha, Postemergence): 0
Nutsedge plant response rating (purple nutsedge; [20]): 0

C=CCn1c(=O)on(C(=O)N(c2ccc(F)cc2)C2CCC2)c1=O [Compound 194]
Barnyardgrass plant response rating (bamyardgrass; [13]): 0
Barnyardgrass plant response rating (bamyardgrass; [14]): 0
Barnyardgrass plant response rating (bamyardgrass; [15]): 0
Plant response rating, Barnyardgrass (bamyardgrass; [16]): 0
Crabgrass plant response rating (crabgrass; [17]): 4
Crabgrass plant response rating (0 to 10 scale) (crabgrass; [8]): 9
Crabgrass plant response rating (crabgrass; [9]): 9
Crabgrass plant response rating (crabgrass; [11]): 0
Crabgrass plant response rating (crabgrass; [19]): 0
Plant response rating (0 to 10; 0 is no effect, 10 is complete control), Crabgrass (crabgrass; Rate 250 g/ha, Postemergence): 0
Crabgrass plant response rating (crabgrass; [20]): 2
Ducksalad plant response rating (duck salad; [13]): 0
Ducksalad plant response rating (duck salad; [14]): 0
Ducksalad plant response rating (duck salad; [15]): 0
Plant response rating, Ducksalad (duck salad; [16]): 0
Nutsedge plant response rating (purple nutsedge; [17]): 0
Nutsedge plant response rating (purple nutsedge; [9]): 0
Plant response rating, Nutsedge (purple nutsedge; [21]): 0
Nutsedge plant response rating (purple nutsedge; [11]): 0
Nutsedge plant response rating (purple nutsedge; [19]): 0
Plant response rating (0 to 10; 0 is no effect, 10 is complete control), Nutsedge (purple nutsedge; Rate 250 g/ha, Postemergence): 0
Nutsedge plant response rating (purple nutsedge; [20]): 0
